One assay deals with T1, K-RasG12V/CaM (Homo sapiens, UniProt P0DP23).
T1 construct: expressed in transfected cells; host or cells: HEK293-EBNA
The experiment in a line: Rluc8-K-RasG12V/GFP2-CaM interaction BRET in HEK293-EBNA cells. The assay is classed as cell-based. As to conditions: for IC50: 24-h exposure, A/D plasmid ratio 9/1, read-out: IC50 of Rluc8-K-RasG12V/GFP2-CaM BRET signal. As to the method: BRET assays were essentially performed as described by others ([Lavoie et al., 2013]; [Bery et al., 2018]). About 100,00–150,000 HEK293-EBNA ([Meissner et al., 2001]) cells were seeded per well of a 12-well plate in 1 ml of DMEM containing 10% FBS and 2 mM L-glutamine and were grown for 24 h. Next day, Rluc8-tagged donor and GFP2-tagged acceptor constructs were transfected into cells using a jetPRIME transfection reagent (cat. no. 114-75, Polyplus). Each well was transfected with about 1 μg of plasmid DNA using 3 μl of the jetPRIME reagent. For BRET donor saturation titration experiments, the concentration of donor plasmid (25 ng) was kept constant, and the concentration of acceptor plasmid was increased from 0 to 500 ng for RasG12V BRET pairs and 0–1,000 ng for K-Ras/CaM BRET pairs. The empty pcDNA3.1(-) plasmid was used to top-up the total DNA load per transfection. After 24 h of transfection, cells were treated with compounds or vehicle control (DMSO 0.2% v/v in a growth medium) at the specified concentration for 24 h or the stipulated time period in case of the time-course experiments. The cells from one well of a 12-well plate were collected, washed, and re-plated in PBS (cat. no. 14190-094, Gibco, Thermo Fisher Scientific) on flat bottom, white 96-well plates (cat. no. 236108, Nunc, Thermo Fisher Scientific) as four technical replicates containing 90 μl of cell suspension per well. Then fluorescence intensity followed by BRET readings were carried out on a Clariostar (BMG Labtech) plate reader at 25°C. The fluorescence intensity (RFU) of GFP2 was measured with excitation at 405 ± 10 nm and emission 515 ± 10 nm; it is proportional to the acceptor concentration [acceptor]. BRET readings were taken well by well by adding 10 μl of 100 μM coelenterazine 400a (cat. no. C-320, GoldBio), the Rluc8 substrate to each well (final concentration of 10 μM) using the injector present in the plate reader. Luminescence emission intensities were simultaneously recorded at 410 ± 40 nm (RLU, proportional to [donor]) and 515 ± 15 nm (BRET signal).
The raw BRET ratio was calculated as the BRET signal measured at 515 nm divided by the emission signal measured at 410 nm (RLU). The BRET ratio was obtained by subtracting the raw BRET ratio by a background BRET signal measured for cells expressing only the donor ([Bacart et al., 2008]) as indicated in the formula below:
For BRET donor saturation titration experiments, the BRET ratio was plotted against the [acceptor]/[donor] ratio. Technical repeat data points were averaged, and data points from all biological repeats were collected into one graph for subsequent fitting. The BRET ratio vs. relative expression data were fitted using a binding saturation equation in the Prism (GraphPad) software to obtain BRETmax and BRET50 using the equation y=BRETmax×x/BRET50+x , where x is the relative expression and y is the BRET ratio. BRETmax represents the maximum saturation BRET signal and depends on the structural parameters (distance, orientation) of the BRET complex. BRET50 corresponds to the ratio of the acceptor construct over the donor construct required to attain 50% of the maximum BRET signal and is a measure of the effective relative affinity between the interacting BRET pair ([Marullo and Bouvier, 2007]).

Assay [1] concerns the target T2, mutCaM (CaM with K75Q, K77Q, and K148Q mutations) (Homo sapiens, UniProt P0DP23, K76Q/K78Q).
T2 construct: made in house; host or cells: E. coli BL21 Star (DE3)pLysS
Nature of the assay: Fluorescence polarization assay with F-CaMKII peptide and His-mutCaM. The class given is binding. The following applies: 50 nM His-mutCaM, 5 nM F-CaMKII, compared to wt CaM. As to the method: Our numbering of CaM follows ([Kong Au and Chow Leung, 1998]) with Ala being the first amino acid in human CaM, as the N-terminal methionine of CaM is removed in most organisms ([Halling et al., 2016]). […] At A600 of 0.6–0.8, the culture was induced with 0.5 mM of isopropyl β-D-thiogalactopyranoside and expressed for 16 h at 25°C. Cells were collected by centrifugation and incubated on ice for 30 min. The cell suspension was sonicated in a lysis buffer (20 mM HEPES, pH 7.6, 150 mM NaCl, 5 mM MgCl2, 0.5 mg/ml lysozyme, and DNase I). The lysates were clarified by centrifugation at 18,000 g for 30 min at 4°C. The soluble fractions were subjected to protein purification.
(Polarisation of emitted light reports the rotation of a fluorescent probe.)

The target of another assay is calmodulin (CaM) (Bos taurus, UniProt P62157). Nature of the assay: Fluorescence polarization assay, displacement of F-PMCA peptide from CaM. The following applies: for kinact/KI: read-out: k2/Ki second-order rate constant.

Description for calmodulin (CaM): Compounds were threefold-diluted in an assay buffer (20 mM Tris Cl pH 7.5, 50 mM NaCl, 1 mM CaCl2, and 0.005% Tween 20), and a complex of 100 nM CaM and 10 nM F-PMCA peptide was added. […] Then the plate was incubated overnight at 4°C, and the next day, final readings were taken after a total of 24 h incubation. The fluorescence anisotropy was calculated and plotted against the logarithm of the compound concentration and fit to the log inhibitor vs. response–variable slope (four parameters) equation in Prism (GraphPad).
The potency and selectivity of a covalent inhibitor are governed by two parameters, namely, Ki, the dissociation constant of the initial non-covalent complex, and k2, the rate of the subsequent covalent bond-forming reaction as given in the chemical equation
E and I denote a protein target and its covalent inhibitor, respectively. E ⋅ I is the initial non-covalent complex, and E – I is the final covalent complex. […] This was repeated for several inhibitor concentrations. Then, kobs was plotted against the concentration of the inhibitor, and the data were fit to a hyperbolic equation kobs=k2×[I]/Ki+[I] to obtain Ki and k2. The ratio of k2/Ki represents the second-order rate constant of the reaction of the covalent inhibitor with the target.

`CC(C)=C[C@H]1C[C@H](C)[C@]2(CC[C@]3(C)C[C@H]4[C@H](C(=O)C[C@@]4(C)O)/C(C=O)=C\C[C@H]32)O1` [OphA, Ophiobolin A, reference compound]: on K-RasG12V/CaM, the IC50 turned out to be 12 ± 2 µM. The “effect on Rluc8-K-RasG12V/GFP2-CaM BRET signal, single concentration” value on K-RasG12V/CaM (calmidazolium 20 μM, prostratin 20 μM, OphA 5 μM) is “significantly reduced the BRET signal”. Also, the “binding to mutCaM over time” value in assay [1] is given as “no binding was observed to mutCaM”. In addition, on calmodulin (CaM), the Ki (commonly a measure of affinity in units of concentration, obtained from inhibition or displacement) is 79 µM and the kinact/KI was 3.89 M⁻¹ s⁻¹.

As to `CC(C)c1ccc2cc(C(F)(F)F)c(=O)c3c(N4CCCCC4)c(C=O)c(c1)c23` [Compound 1], the IC50 at K-RasG12V/CaM stood at 31 ± 2 µM. For the same compound, the “binding to mutCaM over time” value in assay [1] was “displayed binding to mutCaM”. For the same compound, at calmodulin (CaM), the affinity, expressed as Kd, was 0.87 µM; the affinity corresponds to a Ki of 52 µM; the kinact/KI was 2.78 M⁻¹ s⁻¹. Also, on calmodulin (CaM) (Kd 0.87 μM vs […]), the “affinity difference between Calmirasone1 and calmidazolium” value is on record as 64 fold. Further, on calmodulin (CaM) (after 24-h incubation, higher affinity than OphA), the “affinity for CaM relative to OphA” value is “fourfold”.

The record behind these values is PMC8296985, “A Covalent Calmodulin Inhibitor as a Tool to Study Cellular Mechanisms of K-Ras-Driven Stemness” (Frontiers in Cell and Developmental Biology, 2021).
